Tested on: Paracoccus carotinifaciens strain E-396 (FERM BP-4283)
Assay: Amino acid supplementation (20 amino acids), test tube culture, carotenoid by HPLC and growth by OD610
Type: cell-based
Settings: amino acid at 1.0 g/L; for Astaxanthin / Total carotenoid: culture solution; for Astaxanthin / Total carotenoid / OD610: 28° C. for 4 days; for OD610: microbial cell growth, absorbance at 610 nm; for effect on the production of carotenoid pigments: versus tube with no amino acid
Protocol: In the examples, carotenoids were quantified by high performance liquid chromatography (HPLC) as follows.
Two columns of Wakosil-II 5 SIL-100 (φ4.6×250 mm) (Wako Pure Chemical Industries, Ltd., Japan) were connected to each other for use as a column. Elution was performed by flowing an n-hexane-tetrahydrofuran-methanol mixed solution (40:20:1), which was a mobile phase, at a flow rate of 1.0 mL/minute at a constant temperature around room temperature. The measurement was performed as follows. Samples were each dissolved in tetrahydrofuran and then diluted 100-fold with the mobile phase. Each dilution was injected in a volume of 20 μL. The column eluate was detected at a wavelength of 470 nm. As a reference for quantification, astaxanthin (SIGMA, Cat. No. A9335) was used. The astaxanthin concentration of the reference solution was determined using the following equation after measuring the absorbance (A) of the reference solution at 477 nm and the area percentage % (B) of the astaxanthin peak at the time of HPLC analysis under the above conditions. Astaxanthin concentration (mg/L)=A/2150×B×100
A medium of the following composition (sucrose 30 g/L, corn steep liquor 30 g/L, potassium dihydrogenphosphate 1.5 g/L, disodium hydrogenphosphate 12-hydrate 3.8 g/L, calcium chloride dihydrate 5.0 g/L, magnesium sulfate 7-hydrate 0.7 g/L, iron sulfate 7-hydrate 0.3 g/L, pH 7.2) was dispensed in 8 ml volumes into cotton-plugged test tubes having an inner diameter of 18 mm and sterilized in an autoclave at 121° C. for 15 minutes to prepare a test tube medium for seed culture.
Next, a medium of the following composition (glucose 30 g/L, filtered corn steep liquor 5 g/L, ammonium sulfate 1.5 g/L, potassium dihydrogenphosphate 1.5 g/L, disodium hydrogenphosphate 12-hydrate 3.8 g/L, calcium chloride dihydrate 5.0 g/L, magnesium sulfate 7-hydrate 0.7 g/L, iron sulfate 7-hydrate 0.6 g/L, ester-based defoaming agent 0.2 g/L) was dispensed in 8 ml volumes into cotton-plugged test tubes having an inner diameter of 18 mm (21 tubes in total).
The mediums in these test tubes were supplemented with 20 amino acids, glycine, alanine, valine, leucine, isoleucine, serine, threonine, aspartic acid, glutamic acid, asparagine, glutamine, lysine, arginine, cysteine, methionine, phenylalanine, tyrosine, tryptophan, histidine and proline, respectively, at 1.0 g/L. One of the tubes was supplemented with no amino acid as a control. Finally, the mediums in the tubes were adjusted to pH 7.1 with aqueous sodium hydroxide or aqueous sulfuric acid and then sterilized in an autoclave at 121° C. for 20 minutes.
Paracoccus carotinifaciens strain E-396 (FERM BP-4283) was inoculated into the test tube medium for seed culture and then cultured with shaking at 28° C. for 2 days at 300 spm. The resulting culture solution was then inoculated in 0.1 ml volumes into the 21 test tube media, respectively, and cultured with shaking at 28° C. for 4 days at 300 spm.
Each culture solution was measured for its carotenoid concentration by HPLC and microbial cell growth was determined by OD610 (absorbance at 610 nm).

SMILES	Astaxanthin	Total carotenoid	OD610	effect on the production of carotenoid pigments
CC(C)[C@H](N)C(=O)O [Valine, valine]	3.0 mg/L	9.2 mg/L	10	
N[C@@H](Cc1c[nH]cn1)C(=O)O [Histidine, histidine]	3.3 mg/L	8.1 mg/L	8	
N[C@@H](Cc1ccccc1)C(=O)O [Phenylalanine, phenylalanine]	4.9 mg/L	10.6 mg/L	10	stimulatory effect
NCCCC[C@H](N)C(=O)O [Lysine, lysine]	1.1 mg/L	4.9 mg/L	11	clear inhibitory effect
O=C(O)[C@@H]1CCCN1 [Proline, proline]	5.0 mg/L	10.9 mg/L	13	stimulatory effect
CC[C@H](C)[C@H](N)C(=O)O [Isoleucine, isoleucine]	1.3 mg/L	4.5 mg/L	6	clear inhibitory effect
N[C@@H](Cc1ccc(O)cc1)C(=O)O [Tyrosine, tyrosine]	5.0 mg/L	11.3 mg/L	12	stimulatory effect
C[C@H](N)C(=O)O [Alanine, alanine]	6.2 mg/L	20.3 mg/L	13	stimulatory effect
N[C@@H](CS)C(=O)O [Cysteine, cysteine]	0.7 mg/L	3.2 mg/L	4	clear inhibitory effect
NC(=O)CC[C@H](N)C(=O)O [Glutamine, glutamine]	8.3 mg/L	25.8 mg/L	17	stimulatory effect
C[C@@H](O)[C@H](N)C(=O)O [Threonine, threonine]	5.2 mg/L	12.5 mg/L	8	stimulatory effect
CSCC[C@H](N)C(=O)O [Methionine, methionine]	1.4 mg/L	5.0 mg/L	7	clear inhibitory effect
N=C(N)NCCC[C@H](N)C(=O)O [Arginine, arginine]	5.1 mg/L	11.7 mg/L	13	stimulatory effect
N[C@@H](CO)C(=O)O [Serine, serine]	6.0 mg/L	16.4 mg/L	13	stimulatory effect
N[C@@H](CC(=O)O)C(=O)O [Aspartic Acid, aspartic acid]	9.4 mg/L	27.0 mg/L	18	stimulatory effect
NCC(=O)O [Glycine, glycine]	6.2 mg/L	19.0 mg/L	18	stimulatory effect
N[C@@H](Cc1c[nH]c2ccccc12)C(=O)O [Tryptophan, tryptophan]	3.0 mg/L	7.0 mg/L	10	
NC(=O)C[C@H](N)C(=O)O [Asparagine, asparagine]	8.1 mg/L	24.2 mg/L	14	stimulatory effect
CC(C)C[C@H](N)C(=O)O [Leucine, leucine]	4.7 mg/L	10.1 mg/L	11	stimulatory effect
